From patent US20250304644A1, “PEPTIDES TRIPLE AGONISTS OF GIP, GLP-1 AND GLP-2” (BAINAN BIOTECH APS, priority 2021, published 2025)
*1 amine or outer side, *2 acyl side, *3 side chain or, on linkers, in order; H or OH if unused. Where a SMILES comes first, the peptide text is derived from it. Side-chain parts run from the residue outwards. [ ]: non-standard residue; d: D form. The star is where a group is joined. C18 diacid = O=C(O)CCCCCCCCCCCCCCCCC(=O)*; γGlu = O=C(O)[C@H](CCC(=O)[*:2])N[*:1]; Decanoyl = CCCCCCCCCC(=O)*; AEEA = NCCOCCOCC(=O)O; Aib = CC(C)(N)C(=O)O

Legend:
Format in all cases: cell-based
human GLP-1R = molecular target: T1, human GLP-1R (Homo sapiens, UniProt P43220); test: cAMP assay (HitHunter) in transiently transfected COS-7 cells expressing human GLP-1R; conditions: for Emax: COS-7, normalized to highest concentration of the endogenous ligand, read-out: Efficacy GLP-1R (Emax); for EC50: cAMP, COS-7 cells, human GLP-1R, read-out: EC50 (nM) GLP-1R
T1 construct: host or cells: COS-7
T1 sequence (P43220 24-463): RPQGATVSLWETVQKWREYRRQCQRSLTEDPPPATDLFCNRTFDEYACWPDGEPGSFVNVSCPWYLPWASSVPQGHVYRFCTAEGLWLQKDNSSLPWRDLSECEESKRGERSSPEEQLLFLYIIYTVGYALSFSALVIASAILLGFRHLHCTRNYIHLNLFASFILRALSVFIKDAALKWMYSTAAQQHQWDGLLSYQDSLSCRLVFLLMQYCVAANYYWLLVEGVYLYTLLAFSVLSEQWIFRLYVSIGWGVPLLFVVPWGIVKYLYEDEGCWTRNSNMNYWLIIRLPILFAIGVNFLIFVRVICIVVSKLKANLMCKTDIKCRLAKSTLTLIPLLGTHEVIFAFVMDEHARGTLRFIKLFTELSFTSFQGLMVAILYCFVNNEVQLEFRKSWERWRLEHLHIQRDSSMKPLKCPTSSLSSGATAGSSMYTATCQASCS

human GIPR = molecular target: T2, human GIPR (Homo sapiens, UniProt P48546); test: cAMP assay (HitHunter) in transiently transfected COS-7 cells expressing human GIPR; conditions: for Emax: COS-7, normalized to highest concentration of the endogenous ligand, read-out: Efficacy GIPR (Emax); for EC50: cAMP, COS-7 cells, human GIPR
T2 construct: host or cells: COS-7
T2 sequence (P48546 22-466): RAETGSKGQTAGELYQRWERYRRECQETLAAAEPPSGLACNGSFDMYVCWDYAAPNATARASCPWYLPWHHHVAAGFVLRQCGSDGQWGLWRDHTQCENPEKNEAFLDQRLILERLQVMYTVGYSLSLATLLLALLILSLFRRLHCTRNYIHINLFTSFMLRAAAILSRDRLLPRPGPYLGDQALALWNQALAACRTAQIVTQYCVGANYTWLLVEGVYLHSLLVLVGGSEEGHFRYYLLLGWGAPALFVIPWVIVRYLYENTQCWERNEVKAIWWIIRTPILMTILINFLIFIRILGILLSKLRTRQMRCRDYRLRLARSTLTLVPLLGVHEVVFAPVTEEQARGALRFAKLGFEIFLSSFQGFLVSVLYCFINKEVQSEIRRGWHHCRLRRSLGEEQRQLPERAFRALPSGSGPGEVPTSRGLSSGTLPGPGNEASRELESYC

human GLP-2R = molecular target: T3, human GLP-2R (Homo sapiens, UniProt O95838); test: cAMP assay (HitHunter) in transiently transfected COS-7 cells expressing human GLP-2R; conditions: for Emax: COS-7, normalized to highest concentration of the endogenous ligand, read-out: Efficacy GLP-2R (Emax)
T3 construct: host or cells: COS-7
T3 sequence (O95838 1-553): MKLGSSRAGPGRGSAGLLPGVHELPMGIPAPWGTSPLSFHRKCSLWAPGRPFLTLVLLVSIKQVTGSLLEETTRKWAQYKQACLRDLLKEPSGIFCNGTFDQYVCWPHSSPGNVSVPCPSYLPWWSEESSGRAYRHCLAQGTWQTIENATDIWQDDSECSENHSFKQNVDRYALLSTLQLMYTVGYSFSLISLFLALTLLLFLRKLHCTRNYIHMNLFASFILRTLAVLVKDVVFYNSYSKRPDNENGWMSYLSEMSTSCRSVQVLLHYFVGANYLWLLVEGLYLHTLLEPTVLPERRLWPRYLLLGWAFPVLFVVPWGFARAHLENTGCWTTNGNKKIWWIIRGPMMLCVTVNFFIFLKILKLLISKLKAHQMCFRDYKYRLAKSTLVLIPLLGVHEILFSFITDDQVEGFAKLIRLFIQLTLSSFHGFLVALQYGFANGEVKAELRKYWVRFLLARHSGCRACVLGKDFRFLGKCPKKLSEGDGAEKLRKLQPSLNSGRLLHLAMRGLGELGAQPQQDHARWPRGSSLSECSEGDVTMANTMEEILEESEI
Procedure: The next day the assay was initiated by washing with HEPES buffered saline (HBS) and followed by an incubation step with assay buffer (HBS added 1 mM isobutyl-1-methylxanthine (IBMX)) for 30 min at 37° C. The ligands were then added and incubated for an additional 30 min at 37° C. After ligand incubation, the HitHunter® CAMP assay (Eurofins DiscoverX, Fremont, […] USA) was carried out according to the manufacturer's instructions. […] The potencies (EC50 values) were determined by nonlinear regression using GraphPad Prism 9 (San Diego, California, USA). Sigmoid curves were fitted logistically. The efficacies (Emax values) were determined by normalization to the highest concentration applied of the endogenous ligand for each receptor.

human SNAP-tagged GIPR = molecular target: T4, human SNAP-tagged GIPR (Homo sapiens, UniProt P48546); test: Receptor internalization assay, HEK293A cells expressing human SNAP-tagged GIPR; conditions: for Absolute hGIPR internalization (AUC): AUC of sigmoid curves up to 1 μM, 60 minutes at 37° C.
T4 construct: host or cells: HEK293A
T4 sequence (P48546 22-466): T2 sequence (P48546 22-466)

Emax (human GLP-1R) [%] | Emax (human GIPR) [%] | Emax (human GLP-2R) [%] | EC50 (human GLP-2R; cAMP, COS-7 cells, human GLP-2R, read-out: EC50 (nM) GLP-2R) [nM] | Absolute hGIPR internalization (AUC) (human SNAP-tagged GIPR) | EC50 (human GLP-1R) [nM] | EC50 (human GIPR) [nM] | Relative hGIPR internalization (%) (human SNAP-tagged GIPR; relative to hGIP 1-42 = 100) | Compound
101 | 93 | 96 | 2 | 5.3 |  |  |  | CCCCCCCCCC(=O)NCCCC[C@H](NC(=O)[C@@H](NC(=O)[C@@H](NC(=O)[C@H](CCCCN)NC(=O)[C@@H](NC(=O)[C@H](CCC(N)=O)NC(=O)[C@@H](NC(=O)[C@H](CC(C)C)NC(=O)[C@H](Cc1c[nH]c2ccccc12)NC(=O)[C@H](CC(N)=O)NC(=O)[C@@H](NC(=O)[C@H](Cc1ccccc1)NC(=O)[C@H](CC(=O)O)NC(=O)[C@H](CCCNC(=N)N)NC(=O)[C@H](C)NC(=O)[C@H](C)NC(=O)[C@H](CC(C)C)NC(=O)[C@H](CC(N)=O)NC(=O)[C@H](CC(=O)O)NC(=O)[C@H](CC(C)C)NC(=O)[C@@H](NC(=O)[C@@H](NC(=O)[C@H](CO)NC(=O)[C@H](Cc1ccc(O)cc1)NC(=O)[C@H](CC(=O)O)NC(=O)[C@H](CO)NC(=O)[C@@H](NC(=O)[C@H](Cc1ccccc1)NC(=O)[C@@H](NC(=O)CNC(=O)[C@H](CC(=O)O)NC(=O)C(C)(C)NC(=O)[C@@H](N)Cc1c[nH]cn1)[C@@H](C)O)[C@@H](C)CC)[C@@H](C)O)[C@@H](C)CC)[C@@H](C)CC)[C@@H](C)CC)[C@@H](C)O)[C@@H](C)CC)[C@@H](C)O)C(N)=O [Compound 1]
95 | 96 | 97 |  |  | 2.82 | 0.794 |  | CCCCCCCCCC(=O)NCCCC[C@H](NC(=O)[C@@H](NC(=O)[C@@H](NC(=O)[C@H](CCCCN)NC(=O)[C@@H](NC(=O)[C@H](CCC(N)=O)NC(=O)[C@@H](NC(=O)[C@H](CC(C)C)NC(=O)[C@H](Cc1c[nH]c2ccccc12)NC(=O)[C@H](CC(N)=O)NC(=O)[C@@H](NC(=O)[C@H](Cc1ccccc1)NC(=O)[C@H](CC(=O)O)NC(=O)[C@H](CCCNC(=N)N)NC(=O)[C@H](C)NC(=O)[C@H](C)NC(=O)[C@H](CC(C)C)NC(=O)[C@H](CC(N)=O)NC(=O)[C@H](CCC(=O)O)NC(=O)[C@H](CC(C)C)NC(=O)[C@@H](NC(=O)[C@@H](NC(=O)[C@H](CO)NC(=O)[C@H](Cc1ccc(O)cc1)NC(=O)[C@H](CC(=O)O)NC(=O)[C@H](CO)NC(=O)[C@@H](NC(=O)[C@H](Cc1ccccc1)NC(=O)[C@@H](NC(=O)CNC(=O)[C@H](CC(=O)O)NC(=O)C(C)(C)NC(=O)[C@@H](N)Cc1c[nH]cn1)[C@@H](C)O)[C@@H](C)CC)[C@@H](C)O)[C@@H](C)CC)[C@@H](C)CC)[C@@H](C)CC)[C@@H](C)O)[C@@H](C)CC)[C@@H](C)O)C(N)=O [Compound 7] (H-H[Aib]DGTFISDYSTILENLAARDFINWLIQTKITK(Decanoyl)-NH2)
116 | 107 | 117 |  | 13.1 | 0.05 | 0.398 | 35 | H-HADGTFTSDYSTILDKLAARDFINWLIQTKGKKNDWK([AEEA-AEEA-γGlu-C18 diacid])HNITQ-OH [Compound 25]
112 | 82 | 91 |  | 2.1 | 0.06 |  |  | CC[C@H](C)[C@H](NC(=O)[C@H](Cc1ccccc1)NC(=O)[C@H](CC(=O)O)NC(=O)[C@H](CCCCNC(=O)COCCOCCNC(=O)COCCOCCNC(=O)CC[C@H](NC(=O)CCCCCCCCCCCCCCCCC(=O)O)C(=O)O)NC(=O)[C@H](C)NC(=O)[C@H](C)NC(=O)[C@H](CC(C)C)NC(=O)[C@H](CC(N)=O)NC(=O)[C@H](CC(=O)O)NC(=O)[C@H](CC(C)C)NC(=O)[C@@H](NC(=O)[C@@H](NC(=O)[C@H](CO)NC(=O)[C@H](Cc1ccc(O)cc1)NC(=O)[C@H](CC(=O)O)NC(=O)[C@H](CO)NC(=O)[C@@H](NC(=O)[C@H](Cc1ccccc1)NC(=O)[C@@H](NC(=O)CNC(=O)[C@H](CC(=O)O)NC(=O)[C@H](C)NC(=O)[C@@H](N)Cc1c[nH]cn1)[C@@H](C)O)[C@@H](C)O)[C@@H](C)O)[C@@H](C)CC)C(=O)N[C@@H](CC(N)=O)C(=O)N[C@@H](Cc1c[nH]c2ccccc12)C(=O)N[C@@H](CC(C)C)C(=O)N[C@H](C(=O)N[C@@H](CCC(N)=O)C(=O)N[C@H](C(=O)N[C@@H](CCCCN)C(=O)NCC(=O)N[C@@H](CCCCN)C(=O)N[C@@H](CCCCN)C(=O)O)[C@@H](C)O)[C@@H](C)CC [Compound 18]
